The test system of data set [1] is Glioblastoma multiforme. The data set is described as follows: Use case: PDT and SONG laser in treatment of glioblastoma multiforme. The class given is in vivo, human. From the text: The process is further described within a use case scenario of treating a person diagnosed with glioblastoma multiforme. Glioblastoma multiforme is the most aggressive of the brain cancers characterized by rapid growth and extensions throughout the brain making it surgically incurable. Prognosis without treatment is usually 3 months and with maximum treatment only 18 months. The conventional treatment protocol is neurosurgical debulking, targeted and whole brain radiation, followed by 6 months of chemotherapy with Temodar. After these treatments have been exhausted and disease recurs the prognosis is very poor and short term.
The patient described in the stated use case received debulking neurosurgery, targeted radiation to the areas of visible mass, followed by whole brain radiation, and then 6 months of Temodar. After these treatments they suffered memory loss and emotional instability.
A month after completing their last cycle of chemotherapy, the patient received the SONG Laser-based photodynamic therapy in accordance with the present specification, using ICG as the photo-active compound. On days 1, 2, and 3 of the treatment, the patient received 50 mg of nanoscaled or liposomal ICG. On day 3 they were treated with a SONG laser device at 810 nm near infra-red with a primary beam power of 5 Watts. From the peak power measured after going through the beam expander and SONG generator of 3.5 Watts this was reduced 60% to a measured output power of 1.4 Watts. The treated laser was applied in a beam expanded to 25 mm to the whole brain transcutaneously for 12 minutes total duration, by slowly scanning the 25 mm beam systematically over the skull under which brain substance is located. […]
In the mentioned use case, an additional adjunct to the patient's PDT treatment included administering SONG Laser activated and guided very small embryonic-like (VSEL) stem cells 3 days before the PDT cycle began. […] This procedure with SONG Laser activated and guided VSELs was repeated 1 day before the PDT procedure, except with 2.7 times the quantity of VSELs.

For data set [2], the system named is prostate neoplasia. Kind of data set: Use case: PDT and SONG laser in treatment of prostate neoplasia. To be noted: a few weeks after treatment.
[3] abbreviates: same methylene blue + SONG laser protocol.

SMILES strings stand for the structures.

Turning to `CC1(C)C(/C=C/C=C/C=C/C=C2\N(CCCCS(=O)(=O)O)c3ccc4ccccc4c3C2(C)C)=[N+](CCCCS(=O)(=O)[O-])c2ccc3ccccc3c21` [ICG, Indocyanine Green], in data set [1] (4 months after completing last chemotherapy, same ICG + SONG laser 810 nm protocol), the “MRI scan repeated, recurrence” value is reported as “no evidence of recurrence”. Further, the “MRI scan, recurrence of Glioblastoma multiforme” value in data set [1] (a month after PDT, 50 mg nanoscaled or liposomal ICG on days 1, 2, 3, SONG laser 810 nm, 1.4 W output, whole brain, 12 min on two days, adjunct laser-activated VSELs) is “no evidence of recurrence”. In addition, in data set [1] (over the next 2 months after the first MRI, same ICG + SONG laser protocol), the memory and mood result is “improvements in their memory and mood”.
`CN(C)c1ccc2nc3ccc(=[N+](C)C)cc-3sc2c1` [methylene blue, Methylene Blue]: in data set [2] (50 mg orally and also intra-rectally, 1 h wait, SONG laser 660 nm, 80 mW output, through the perineum, 10 min, PSA of 16 before), the “reduction of PSA” value came out at 50%. Moreover, in data set [2] (PSA of 16 before, same methylene blue + SONG laser protocol), the “PSA level after treatment” value came to 8. Further, in data set [2] (setting [3]), the adverse effects result is “no adverse effects” and the urinary symptoms entry was “improvements in urinary symptoms”.

For the origin of these results see patent US20250242170A1, “Methods and Systems for Improving Photodynamic Therapy by Increasing Depth of Penetration Without Concurrently Increasing Energy Deposition” (priority 2024, published 2025).
